According to US9109175B2, “Isoprenoid based alternative diesel fuel” (The Regents of the University of California, priority 2010, dated 2015):
Marks after values point to notes of the source that are not given here.

Key:
Format in all cases: physicochemical
[1] = Cetane number, ASTM D6890 / D613; settings: for Cetane number: ASTM D6890
Protocol: “Cetane number” refers to a measure of how readily a fuel starts to burn (autoignite) under conditions described by ASTM D613 or ASTM D6890. A fuel with a high cetane number starts to burn shortly after it is injected into the cylinder; it has a short ignition delay period. Conversely, a fuel with a low cetane number resists autoignition and has a longer ignition delay period.
(§1) Fuel property testing of hydrogenated bisabolene was carried out using standard ASTM methods known to and used by those of skill in the art. Table 1 sets forth the various fuel properties analyzed for each of Diesel Fuel Grade #2, bisabolene (mixture of isomers) and hydrogenated bisabolene as well as the ASTM test methods employed to analyze the particular fuel property.

Density, ASTM D4052 = settings: ASTM D4052, 15.56° C.
Protocol: “Density” refers to a measure of mass per volume at a particular temperature. The generally accepted method for measuring the density of a fuel is ASTM Standard D4052, which is incorporated herein by reference.
as §1

[2] = Cloud point, ASTM D5773 / D2500
Protocol: as §1

[3] = Kinetic viscosity, ASTM D445; settings: ASTM D445, 40° C.
Protocol: “Viscosity” refers to a measure of the resistance of a fuel or fuel composition to deform under shear stress. The generally accepted method for measuring the viscosity of a fuel is ASTM Standard D445, which is incorporated herein by reference.
as §1

Flash point, ASTM D93 = test: Flash point, ASTM D93
Protocol: as §1

[4] = Distillation temperature, ASTM D2887 / D86
Protocol: as §1

Freeze point, ASTM D5972 = test: Freeze point, ASTM D5972
Protocol: as §1

API gravity, ASTM D4052 = settings: ASTM D4052, 15.56° C.
Protocol: as §1

Cetane number [1] | Density (@ 15.56° C.) (Density, ASTM D4052) [kg/m^3] | Cloud point [2] [°C] | Kinetic viscosity (@ 40° C.) [3] [mm^2/s] | Flash point (Flash point, ASTM D93) [°C] | Distillation [4] | Freeze point (Freeze point, ASTM D5972) [°C] | API Gravity (@ 15.56° C.) (API gravity, ASTM D4052) | Derived Cetane Number (DCN) [1] | SMILES
52.6 | – | – | – | – | – | – | – | – | CC(C)CCCC(C)C1CCC(C)CC1 (stereo not shown) [Hydrogenated biosynthetic bisabolene, 1(1,5-dimethylhexyl)-4-methylcyclohexane]
41.9 | 819.7 | <−78 | 2.91 | 111 | 267^d ° C. | <−81 | 41 | – | CC(C)CCCC(C)C1CCC(C)CC1 (stereo not shown) [Hydrogenated commercial bisabolene, 1(1,5-dimethylhexyl)-4-methylcyclohexane]
– | – | – | – | – | – | – | – | about 42 | CC(C)CCCC(C)C1CCC(C)CC1 (stereo not shown) [hydrogenated bisabolene]
